Laboratory results as given in patent publication US20020119107A1, “Method for protecting and restoring skin using selective MMP inhibitors” (priority 2000, published 2002).
One block for each compound: values may come before it.

Experiments:
human skin collagenase = test: Fibroblast contraction of collagen gels treated with human skin collagenase; type: cell-based; details: gels treated with human skin collagenase in the presence of 10 μg of aprotinin; FIG. 8B
Method: Preparation of polymerized collagen gels. […] During this period, the collagen formed a polymerized gel.
Collagen-degrading enzyme preparations. […] Intact collagen exposed to buffer alone served as control. […] Incubation was at 37° C. and 5% CO2.

bacterial collagenase = details: gel exposed to bacterial collagenase plus 10 mM EDTA, EDTA then neutralized with Ca2+; FIG. 8B
Method: (§1) Collagen-degrading enzyme preparations. A collagenolytic enzyme preparation from Clostridium histolyticum (Collagenase type I; Worthington Biochemical Corp, Freehold, N.J.) was used to produce fragmentation of the collagen. […] The bacterial enzyme preparation cleaves intact collagen at numerous sites to produce low molecular weight fragments. Collagenolytic activity was quantified by exposing 1 mg of rat tail (monomeric) collagen to varying concentrations of enzyme preparation for 5 hours at 37° C. Intact collagen exposed to buffer alone served as control. At the end of the incubation period, the control collagen and enzyme-treated collagen were resolved on SDS-PAGE and stained with Coomassie brilliant blue. Laser densitometry was used to quantify α1(I) and α2(I) bands in the intact and digested preparations. […] Human basal cell carcinoma tissue was used as a source of collagen-degrading enzymes from human skin. Fresh tumor specimens obtained at surgery were cut into 2-mm pieces, and 6-8 tissue pieces incubated for 72 hours in 0.5 ml of Ca^2+-supplemented MCDB-153. Incubation was at 37° C. and 5% CO2. At the end of the incubation period, the culture fluid was obtained and used as the enzyme source.

[1] = tested on: collagen-degrading enzymes from human skin (basal cell carcinoma conditioned medium)
Method: as §1

[2] = tested on: collagenolytic enzyme preparation from Clostridium histolyticum (Collagenase type I)
Method: as §1

MMP-9 = MMP-9 (Homo sapiens, UniProt P14780); details: from Whittaker et al., Chem. Rev. 1999; cited from earlier work
MMP-2 = molecular target: T1, MMP-2 (Homo sapiens, UniProt P08253); details: from Whittaker et al., Chem. Rev. 1999; cited from earlier work
T1 sequence (P08253 110-660): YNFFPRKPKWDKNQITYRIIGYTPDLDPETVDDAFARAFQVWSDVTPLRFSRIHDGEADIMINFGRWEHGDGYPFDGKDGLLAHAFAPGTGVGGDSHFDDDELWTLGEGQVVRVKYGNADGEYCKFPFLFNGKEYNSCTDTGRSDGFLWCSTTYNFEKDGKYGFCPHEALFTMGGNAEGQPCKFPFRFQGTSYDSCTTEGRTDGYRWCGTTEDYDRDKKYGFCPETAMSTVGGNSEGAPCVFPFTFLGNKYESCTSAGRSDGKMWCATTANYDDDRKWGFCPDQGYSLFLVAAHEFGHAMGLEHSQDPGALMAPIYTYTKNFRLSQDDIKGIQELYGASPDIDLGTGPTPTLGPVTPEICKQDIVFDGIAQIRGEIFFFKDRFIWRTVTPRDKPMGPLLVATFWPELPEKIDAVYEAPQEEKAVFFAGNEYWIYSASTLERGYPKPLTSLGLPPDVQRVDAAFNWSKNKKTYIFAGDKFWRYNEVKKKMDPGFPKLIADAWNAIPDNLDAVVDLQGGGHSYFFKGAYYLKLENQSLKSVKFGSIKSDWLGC

MMP-9, sequence (P14780 94-707): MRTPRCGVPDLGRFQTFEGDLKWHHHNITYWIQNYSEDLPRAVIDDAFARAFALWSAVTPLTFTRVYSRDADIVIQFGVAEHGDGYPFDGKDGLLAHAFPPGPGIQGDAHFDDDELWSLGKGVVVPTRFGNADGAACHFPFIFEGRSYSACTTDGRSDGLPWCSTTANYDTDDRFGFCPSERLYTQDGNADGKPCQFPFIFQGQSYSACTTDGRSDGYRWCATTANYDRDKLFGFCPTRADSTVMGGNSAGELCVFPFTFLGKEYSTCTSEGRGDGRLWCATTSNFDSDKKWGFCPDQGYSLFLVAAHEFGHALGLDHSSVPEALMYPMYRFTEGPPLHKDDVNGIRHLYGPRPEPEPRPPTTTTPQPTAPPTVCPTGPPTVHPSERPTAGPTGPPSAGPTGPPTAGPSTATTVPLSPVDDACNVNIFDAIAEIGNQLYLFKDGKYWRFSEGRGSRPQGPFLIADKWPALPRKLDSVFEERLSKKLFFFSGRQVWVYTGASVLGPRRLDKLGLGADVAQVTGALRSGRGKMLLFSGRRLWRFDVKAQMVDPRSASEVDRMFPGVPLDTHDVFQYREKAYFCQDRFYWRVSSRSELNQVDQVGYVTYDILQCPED

collagen contraction (human skin collagenase): not
Compound: aprotinin

Compound: O=C(O)CN(CCN(CC(=O)O)CC(=O)O)CC(=O)O [EDTA, ethylene diamine tetraacetic acid]
collagen contraction (bacterial collagenase): no collagen contraction
zymographic activities ([1]; 10 mM EDTA in the incubation buffer, gelatin, collagen and β-casein): suppressed zymographic activities
collagen-degradation ([1]; 10 mM EDTA in the reaction mixture): suppressed collagen-degradation
reactivity in zymography ([2]; 10 mM EDTA included in the overnight incubation buffer, gelatin and monomeric collagen): Reactivity was lost
collagen breakdown ([2]; 10 mM EDTA included in the reaction mixture, 1 mg rat tail monomeric collagen, 5 hours at 37° C.): no detectable collagen breakdown

Compound: CN1C(=O)N(C[C@H](C(=O)NO)[C@@H](CC2CCCC2)C(=O)N2CCCCC2)C(=O)C1(C)C [compound 52]
IC50 (MMP-9): 0.059 µM
IC50 (MMP-2): 0.154 µM
